According to ChEMBL document CHEMBL5465560, “Selectivity Literature for EUbOPEN Chemogenomic Library” (2024):
One block for each compound: values may come before it.

Experiments:
[1] = target: Serine/threonine-protein kinase MARK1 (Homo sapiens) (UniProt Q9P0L2); experiment: Selectivity interaction (Kinase panel (Z-LYTE Assay)) EUB0001632a MARK1; conditions: at 10 µM
[2] = target: T1, Serine/threonine-protein kinase Sgk1 (Homo sapiens) (UniProt O00141); experiment: Selectivity interaction (Kinase panel (literature)) EUB0001199aCl SGK1; conditions: at 1 µM
T1 sequence (whole entry): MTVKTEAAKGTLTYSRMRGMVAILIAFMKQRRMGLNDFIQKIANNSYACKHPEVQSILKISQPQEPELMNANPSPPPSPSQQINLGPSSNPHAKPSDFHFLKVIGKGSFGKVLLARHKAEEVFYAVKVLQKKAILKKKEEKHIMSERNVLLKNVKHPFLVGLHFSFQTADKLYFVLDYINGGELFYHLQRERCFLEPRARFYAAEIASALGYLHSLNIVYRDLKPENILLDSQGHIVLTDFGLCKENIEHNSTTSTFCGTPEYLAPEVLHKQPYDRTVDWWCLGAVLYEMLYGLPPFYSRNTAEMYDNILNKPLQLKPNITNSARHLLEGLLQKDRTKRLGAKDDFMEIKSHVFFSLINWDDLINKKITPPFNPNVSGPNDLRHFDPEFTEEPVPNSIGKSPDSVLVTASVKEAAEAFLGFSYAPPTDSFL

[3] = system: Mast/stem cell growth factor receptor Kit (Homo sapiens), P10721 [V559D,V654A]; experiment: (§1) Selectivity interaction (KinomeScan (DiscoverX)) EUB0000607a KIT; conditions: at 10 µM
Mast/stem cell growth factor receptor Kit (Homo sapiens), P10721 [V559D,V654A], sequence (P10721 whole entry V559D/V654A): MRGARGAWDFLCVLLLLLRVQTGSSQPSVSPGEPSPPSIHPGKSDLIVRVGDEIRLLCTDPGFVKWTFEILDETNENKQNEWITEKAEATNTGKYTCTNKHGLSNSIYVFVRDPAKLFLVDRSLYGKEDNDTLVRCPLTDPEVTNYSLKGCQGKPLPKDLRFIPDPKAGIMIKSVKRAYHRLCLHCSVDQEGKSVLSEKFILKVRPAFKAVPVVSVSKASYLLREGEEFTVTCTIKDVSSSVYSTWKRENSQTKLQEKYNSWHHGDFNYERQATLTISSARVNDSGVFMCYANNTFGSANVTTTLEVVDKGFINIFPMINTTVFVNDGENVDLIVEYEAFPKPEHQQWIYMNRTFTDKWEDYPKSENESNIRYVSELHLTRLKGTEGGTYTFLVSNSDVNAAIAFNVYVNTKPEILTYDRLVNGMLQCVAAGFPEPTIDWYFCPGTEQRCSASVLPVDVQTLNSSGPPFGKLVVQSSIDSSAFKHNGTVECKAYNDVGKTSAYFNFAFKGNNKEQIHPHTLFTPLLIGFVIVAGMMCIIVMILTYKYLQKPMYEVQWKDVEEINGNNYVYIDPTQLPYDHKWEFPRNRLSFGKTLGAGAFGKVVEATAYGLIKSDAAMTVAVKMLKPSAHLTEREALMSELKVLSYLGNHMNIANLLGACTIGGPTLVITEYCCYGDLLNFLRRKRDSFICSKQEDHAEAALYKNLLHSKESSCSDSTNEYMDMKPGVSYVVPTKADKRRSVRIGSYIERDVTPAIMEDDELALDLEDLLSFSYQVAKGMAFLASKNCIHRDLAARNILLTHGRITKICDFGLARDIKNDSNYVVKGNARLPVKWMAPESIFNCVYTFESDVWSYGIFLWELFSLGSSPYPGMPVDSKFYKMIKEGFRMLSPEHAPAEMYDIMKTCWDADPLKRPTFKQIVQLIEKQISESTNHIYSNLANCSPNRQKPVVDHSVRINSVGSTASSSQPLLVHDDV

[4] = system: Mast/stem cell growth factor receptor Kit (Homo sapiens), P10721 [D816H]; experiment: as §1; conditions: at 10 µM
Mast/stem cell growth factor receptor Kit (Homo sapiens), P10721 [D816H], sequence (P10721 whole entry D816H): as the sequence (P10721 whole entry V559D/V654A) above, with D559V, A654V, D816H counted along it

[5] = system: Mast/stem cell growth factor receptor Kit (Homo sapiens), P10721 [L576P]; experiment: as §1; conditions: at 10 µM
Mast/stem cell growth factor receptor Kit (Homo sapiens), P10721 [L576P], sequence (P10721 whole entry L576P): as the sequence (P10721 whole entry V559D/V654A) above, with D559V, L576P, A654V counted along it

[6] = system: Mast/stem cell growth factor receptor Kit (Homo sapiens), P10721 [V559D,T670I]; experiment: as §1; conditions: at 10 µM
Mast/stem cell growth factor receptor Kit (Homo sapiens), P10721 [V559D,T670I], sequence (P10721 whole entry V559D/T670I): as the sequence (P10721 whole entry V559D/V654A) above, with A654V, T670I counted along it

[7] = system: Mast/stem cell growth factor receptor Kit (Homo sapiens), P10721 [A829P]; experiment: as §1; conditions: at 10 µM
Mast/stem cell growth factor receptor Kit (Homo sapiens), P10721 [A829P], sequence (P10721 whole entry A829P): as the sequence (P10721 whole entry V559D/V654A) above, with D559V, A654V, A829P counted along it

[8] = target: Mast/stem cell growth factor receptor Kit (Homo sapiens, UniProt P10721); experiment: as §1; conditions: at 10 µM
Mast/stem cell growth factor receptor Kit, sequence (P10721 whole entry): as the sequence (P10721 whole entry V559D/V654A) above, with D559V, A654V counted along it

[9] = target: T2, Serine/threonine-protein kinase ULK2 (Homo sapiens) (UniProt Q8IYT8); experiment: Selectivity interaction (KinomeScan (DiscoverX)) EUB0000695a ULK2; conditions: at 100 nM
T2 sequence (whole entry): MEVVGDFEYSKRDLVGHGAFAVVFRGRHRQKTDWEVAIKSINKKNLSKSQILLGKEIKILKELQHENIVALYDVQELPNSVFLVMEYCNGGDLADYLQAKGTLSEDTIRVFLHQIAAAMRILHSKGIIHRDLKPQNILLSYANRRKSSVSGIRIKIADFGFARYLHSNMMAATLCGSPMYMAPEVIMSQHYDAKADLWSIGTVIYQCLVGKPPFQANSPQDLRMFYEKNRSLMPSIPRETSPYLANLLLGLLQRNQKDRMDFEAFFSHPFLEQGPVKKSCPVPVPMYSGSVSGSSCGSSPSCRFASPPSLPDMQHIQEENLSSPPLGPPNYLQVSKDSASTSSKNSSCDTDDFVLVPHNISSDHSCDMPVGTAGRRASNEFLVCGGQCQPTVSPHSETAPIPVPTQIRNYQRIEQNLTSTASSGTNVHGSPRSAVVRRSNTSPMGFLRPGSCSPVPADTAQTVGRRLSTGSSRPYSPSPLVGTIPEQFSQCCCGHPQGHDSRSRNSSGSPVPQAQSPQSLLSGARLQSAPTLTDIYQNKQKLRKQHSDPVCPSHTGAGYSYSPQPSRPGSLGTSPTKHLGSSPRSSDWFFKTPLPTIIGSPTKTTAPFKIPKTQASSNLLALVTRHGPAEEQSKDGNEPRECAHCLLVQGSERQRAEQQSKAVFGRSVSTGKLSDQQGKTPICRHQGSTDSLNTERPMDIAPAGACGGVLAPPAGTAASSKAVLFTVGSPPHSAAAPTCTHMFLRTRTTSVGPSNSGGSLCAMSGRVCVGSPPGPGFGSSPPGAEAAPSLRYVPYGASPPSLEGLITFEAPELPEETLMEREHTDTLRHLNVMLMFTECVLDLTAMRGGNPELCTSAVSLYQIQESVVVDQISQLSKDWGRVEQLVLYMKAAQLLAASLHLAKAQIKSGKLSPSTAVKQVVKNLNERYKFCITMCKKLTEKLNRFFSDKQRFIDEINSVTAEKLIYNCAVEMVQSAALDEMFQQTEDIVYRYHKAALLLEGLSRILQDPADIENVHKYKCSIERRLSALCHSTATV

[10] = target: T3, Serine/threonine-protein kinase LATS1 (Homo sapiens) (UniProt O95835); experiment: Selectivity interaction (KinomeScan (DiscoverX)) EUB0001079a LATS1; conditions: at 1 µM
T3 sequence (whole entry): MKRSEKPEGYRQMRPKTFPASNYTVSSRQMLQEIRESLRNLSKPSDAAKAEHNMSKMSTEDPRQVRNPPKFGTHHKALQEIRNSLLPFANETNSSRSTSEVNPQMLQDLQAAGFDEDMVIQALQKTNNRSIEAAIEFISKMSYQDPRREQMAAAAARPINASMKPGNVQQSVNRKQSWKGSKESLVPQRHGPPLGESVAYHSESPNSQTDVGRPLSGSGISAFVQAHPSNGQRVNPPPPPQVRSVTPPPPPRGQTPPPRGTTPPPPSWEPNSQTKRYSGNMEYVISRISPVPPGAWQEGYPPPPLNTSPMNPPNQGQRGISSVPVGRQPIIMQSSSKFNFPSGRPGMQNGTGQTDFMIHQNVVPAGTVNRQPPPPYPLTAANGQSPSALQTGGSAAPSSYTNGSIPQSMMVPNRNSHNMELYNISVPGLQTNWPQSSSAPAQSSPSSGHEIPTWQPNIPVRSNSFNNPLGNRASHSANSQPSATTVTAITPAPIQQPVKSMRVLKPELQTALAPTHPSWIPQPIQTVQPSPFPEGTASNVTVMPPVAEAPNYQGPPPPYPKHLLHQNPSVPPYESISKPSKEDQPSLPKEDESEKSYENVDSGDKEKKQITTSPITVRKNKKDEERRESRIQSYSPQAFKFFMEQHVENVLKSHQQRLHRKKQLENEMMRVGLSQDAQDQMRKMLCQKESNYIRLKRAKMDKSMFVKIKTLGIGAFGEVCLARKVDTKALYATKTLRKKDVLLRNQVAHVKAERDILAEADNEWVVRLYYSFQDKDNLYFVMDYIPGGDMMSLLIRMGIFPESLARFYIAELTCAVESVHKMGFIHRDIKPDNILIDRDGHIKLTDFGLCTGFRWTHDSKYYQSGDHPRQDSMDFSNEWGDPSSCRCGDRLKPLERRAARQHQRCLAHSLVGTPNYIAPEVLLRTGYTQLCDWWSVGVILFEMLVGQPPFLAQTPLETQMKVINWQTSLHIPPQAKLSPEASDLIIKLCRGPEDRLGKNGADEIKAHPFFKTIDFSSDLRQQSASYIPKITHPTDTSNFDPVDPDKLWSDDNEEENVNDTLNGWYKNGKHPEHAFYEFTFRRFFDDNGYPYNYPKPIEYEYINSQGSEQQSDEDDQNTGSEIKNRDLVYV

Serine/threonine-protein kinase MARK1 (Homo sapiens), sequence (Q9P0L2 whole entry, looked up): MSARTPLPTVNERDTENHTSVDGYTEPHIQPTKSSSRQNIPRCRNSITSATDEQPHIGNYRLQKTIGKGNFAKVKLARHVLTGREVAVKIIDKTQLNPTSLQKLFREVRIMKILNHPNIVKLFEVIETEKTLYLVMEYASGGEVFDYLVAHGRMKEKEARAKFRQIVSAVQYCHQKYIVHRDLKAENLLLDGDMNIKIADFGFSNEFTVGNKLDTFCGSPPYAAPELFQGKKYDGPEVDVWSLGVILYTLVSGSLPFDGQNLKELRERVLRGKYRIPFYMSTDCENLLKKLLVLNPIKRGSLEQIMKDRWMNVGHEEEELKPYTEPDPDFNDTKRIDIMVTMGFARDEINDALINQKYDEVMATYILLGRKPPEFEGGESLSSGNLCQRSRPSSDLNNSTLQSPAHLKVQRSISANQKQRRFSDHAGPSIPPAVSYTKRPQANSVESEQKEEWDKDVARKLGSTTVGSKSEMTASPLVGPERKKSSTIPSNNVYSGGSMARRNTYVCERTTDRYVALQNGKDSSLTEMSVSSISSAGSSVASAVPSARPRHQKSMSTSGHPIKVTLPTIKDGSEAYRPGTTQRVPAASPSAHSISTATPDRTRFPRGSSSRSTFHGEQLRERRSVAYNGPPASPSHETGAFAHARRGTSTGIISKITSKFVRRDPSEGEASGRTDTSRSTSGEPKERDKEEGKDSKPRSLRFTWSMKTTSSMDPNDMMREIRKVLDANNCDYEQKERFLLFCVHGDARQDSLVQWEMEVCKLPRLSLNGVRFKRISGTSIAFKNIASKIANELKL

- % of control [1]: 3.94%
Compound: Cn1cc(-n2cnc3c(NCc4nc5cc(Cl)c(Cl)cc5[nH]4)nc(N4CCOCC4)nc32)cn1

- % of inhibition [2]: 2%
Compound: CN1Cc2nccc(-c3cn(C)nc3-c3ccc(F)cc3)c2C1=O

Compound: CNC(=O)Nc1ccc(-c2nc(N3CC4CCC(C3)O4)c3cnn(C4CCC5(CC4)OCCO5)c3n2)cc1
- % of control [3]: 100%
- % of control [4]: 86%
- % of control [5]: 85%
- % of control [6]: 100%
- % of control [7]: 89%
- % of control [8]: 91%

Compound: Cc1cc(F)c(C(=O)Nc2cccc(-c3nncn3C(C)C)n2)cc1-n1cnc(C2CC2)c1
- % of control [9]: 91%

Compound: Nc1cnc(N2CCc3cc(S(=O)(=O)Nc4c(F)cc(Cl)cc4F)cc(N4CCCC4=O)c32)nc1 [TP-020n]
- % of control [10]: 100%
